What was measured:
Test in all cases: relative viability (nuclei count vs DMSO), 5 days (fraction); higher = more cells survive
[1] = compound: NS(=O)(=O)OC[C@@H]1C[C@@H](n2ccc3c(N[C@H]4CCc5ccccc54)ncnc32)C[C@@H]1O [MLN4924] + CC(C)C[C@H](NC(=O)[C@H](Cc1ccccc1)NC(=O)c1cnccn1)B(O)O [Bortezomib] (partner 0.002 µM)
How it was run: (§1)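 Five library-drug doses in √10 steps were combined with a fixed anchor-drug dose, or a single drug was given alone, by pin tool to lung cancer cell lines in 1536-well plates the day after seeding. Nuclei were stained and counted after 5 days. Relative viability is the nuclei count in treated wells over that in vehicle wells, taken as the median of duplicate plates.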

[2] = compound: CC[C@H](C)N1C=C(C2=C(C=C(C=C21)C3=CN=C(C=C3)N4CCNCC4)C(=O)NCC5=C(C=C(NC5=O)C)C)C [GSK126] + Nc1nc2[nH]cc(CCc3ccc(C(=O)N[C@@H](CCC(=O)O)C(=O)O)cc3)c2c(=O)[nH]1 [Pemetrexed] (partner 0.2 µM)
How it was run: as §1

[3] = compound: NS(=O)(=O)OC[C@@H]1C[C@@H](n2ccc3c(N[C@H]4CCc5ccccc54)ncnc32)C[C@@H]1O [MLN4924] + CS(=O)(=O)CCNCc1ccc(-c2ccc3ncnc(Nc4ccc(OCc5cccc(F)c5)c(Cl)c4)c3c2)o1 [Lapatinib] (partner 2 µM)
How it was run: as §1

[4] = compound: NS(=O)(=O)OC[C@@H]1C[C@@H](n2ccc3c(N[C@H]4CCc5ccccc54)ncnc32)C[C@@H]1O [MLN4924] + Cc1cc(Nc2cc(N3CCN(C)CC3)nc(Sc3ccc(NC(=O)C4CC4)cc3)n2)n[nH]1 [Tozasertib] (partner 0.1 µM)
How it was run: as §1

Row | Cell Line | relative viability ([1]; first compound 0.04 µM) | relative viability ([1]; first compound 0.1265 µM) | relative viability ([1]; first compound 0.4 µM) | relative viability ([1]; first compound 1.265 µM) | relative viability ([1]; first compound 4 µM) | relative viability ([2]; first compound 0.08 µM) | relative viability ([2]; first compound 0.253 µM) | relative viability ([2]; first compound 0.8 µM) | relative viability ([2]; first compound 2.53 µM) | relative viability ([2]; first compound 8 µM) | relative viability ([3]; first compound 0.04 µM) | relative viability ([3]; first compound 0.1265 µM) | relative viability ([3]; first compound 0.4 µM) | relative viability ([3]; first compound 1.265 µM) | relative viability ([3]; first compound 4 µM) | relative viability ([4]; first compound 0.04 µM) | relative viability ([4]; first compound 0.1265 µM) | relative viability ([4]; first compound 0.4 µM) | relative viability ([4]; first compound 1.265 µM) | relative viability ([4]; first compound 4 µM)
1 | HCC-44 | 0.774 | 0.642 | 0.281 | 0.208 | 0.19 | 0.65 | 0.712 | 0.581 | 0.602 | 0.551 | 0.657 | 0.249 | 0.159 | 0.142 | 0.145 | 0.816 | 0.471 | 0.186 | 0.231 | 0.272
2 | NCI-H3122 | 1.07 | 0.752 | 0.35 | 0.208 | 0.146 | 0.203 | 0.208 | 0.185 | 0.204 | 0.209 | 0.991 | 0.629 | 0.293 | 0.177 | 0.206 | 0.347 | 0.226 | 0.113 | 0.0963 | 0.103
3 | COR-L23 | 0.936 | 0.915 | 0.587 | 0.186 | 0.105 | 0.229 | 0.194 | 0.188 | 0.185 | 0.183 | 0.921 | 0.672 | 0.431 | 0.142 | 0.106 | 0.207 | 0.205 | 0.181 | 0.122 | 0.0744
4 | 201T | 1.16 | 1.04 | 1.08 | 0.4 | 0.392 | 0.346 | 0.342 | 0.329 | 0.367 | 0.328 | 1.13 | 1.09 | 0.826 | 0.384 | 0.417 | 1.07 | 0.737 | 0.697 | 0.301 | 0.319
5 | NCI-H23 | 0.94 | 0.617 | 0.376 | 0.165 | 0.144 | 0.773 | 0.735 | 0.687 | 0.706 | 0.631 | 0.282 | 0.232 | 0.202 | 0.125 | 0.169 | 0.367 | 0.388 | 0.235 | 0.176 | 0.141
6 | NCI-H2087 | 0.746 | 0.717 | 0.468 | 0.151 | 0.154 | 0.611 | 0.666 | 0.685 | 0.645 | 0.648 | 0.843 | 0.597 | 0.233 | 0.142 | 0.132 | 0.189 | 0.257 | 0.244 | 0.0576 | 0.0697
7 | HARA | 0.918 | 0.516 | 0.218 | 0.101 | 0.0858 | 0.247 | 0.258 | 0.231 | 0.215 | 0.215 | 0.856 | 0.607 | 0.283 | 0.0754 | 0.0741 | 0.101 | 0.0797 | 0.0797 | 0.0484 | 0.065
8 | NCI-H2347 | 0.79 | 0.933 | 0.532 | 0.392 | 0.395 | 0.422 | 0.396 | 0.448 | 0.441 | 0.461 | 0.746 | 0.897 | 0.487 | 0.338 | 0.412 | 0.647 | 0.546 | 0.386 | 0.283 | 0.241
9 | COR-L 105 | 0.629 | 0.396 | 0.252 | 0.242 | 0.41 | 1.08 | 0.987 | 0.887 | 1.11 | 1.12 | 0.355 | 0.335 | 0.337 | 0.282 | 0.281 | 0.343 | 0.331 | 0.323 | 0.247 | 0.241
10 | A-427 | 0.622 | 0.447 | 0.231 | 0.195 | 0.197 | 1.03 | 0.937 | 1.03 | 1.08 | 0.991 | 0.589 | 0.608 | 0.268 | 0.196 | 0.169 | 0.168 | 0.164 | 0.128 | 0.131 | 0.133
11 | HCC-15 | 0.685 | 0.53 | 0.234 | 0.102 | 0.0928 | 0.221 | 0.229 | 0.224 | 0.215 | 0.238 | 0.514 | 0.374 | 0.115 | 0.0895 | 0.0956 | 0.266 | 0.167 | 0.129 | 0.0769 | 0.0852
12 | NCI-H2023 | 0.927 | 0.796 | 0.113 | 0.0794 | 0.0811 | 0.251 | 0.231 | 0.224 | 0.268 | 0.13 | 0.352 | 0.133 | 0.0733 | 0.0477 | 0.0781 | 0.35 | 0.31 | 0.171 | 0.0719 | 0.0659
13 | LC-2-ad | 0.943 | 0.859 | 0.41 | 0.226 | 0.104 | 0.257 | 0.265 | 0.278 | 0.281 | 0.253 | 0.561 | 0.505 | 0.143 | 0.104 | 0.107 | 0.434 | 0.344 | 0.362 | 0.218 | 0.198
14 | NCI-H460 | 0.998 | 1.1 | 1.04 | 0.203 | 0.0203 | 0.0714 | 0.0516 | 0.0631 | 0.0635 | 0.0781 | 0.657 | 0.0947 | 0.0407 | 0.016 | 0.0144 | 0.464 | 0.484 | 0.421 | 0.228 | 0.0266
15 | NCI-H1915 | 0.982 | 0.941 | 0.815 | 0.22 | 0.187 | 0.573 | 0.484 | 0.504 | 0.477 | 0.484 | 0.88 | 0.962 | 0.649 | 0.166 | 0.156 | 0.399 | 0.362 | 0.395 | 0.212 | 0.159
16 | HOP-62 | 0.392 | 0.402 | 0.117 | 0.0531 | 0.0923 | 0.335 | 0.355 | 0.284 | 0.289 | 0.419 | 0.843 | 0.798 | 0.205 | 0.114 | 0.0815 | 0.359 | 0.198 | 0.0852 | 0.049 | 0.0903

Reference: the supplement of paper PMC10307832
